Assays:
[1] = tested on: HEK293 SuperTOPFlash reporter cells, Wnt promoter; test: HEK CELL Wnt Assay (luciferase reporter); format: cell-based; conditions: serial dilutions, with or without 50 ng/mL Wnt3a; 18 h
Outline: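 Reporter cells were seeded 24 h before dosing with serial dilutions ([…] to 1 nM), with or without 50 ng/mL Wnt3a, and incubated 18 h. Untreated cells served as negative control, with luciferase as read-out.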

[2] = tested on: HEK293 SuperTOPFlash reporter cells, Wnt promoter; test: Wnt inhibition in HEK293 SuperTOPFlash reporter cells, DMSO vs aqueous GO-HA (FIGS. 1-3); format: cell-based
Experimental: In order to determine the effect of the compounds of Formula (I) on Wnt inhibition, an invitro assay using HEK293 SuperTOPFlash reporter cells, with the Wnt promoter driving a luciferase reporter gene, were utilized. 40,000 HEK293 SuperTOPFlash reporter cells were seeded, per well, in a 48 well plate for 24 hours, prior to administration of serial dilutions of the compounds of Formula (I) to individual wells. Serial dilutions ranging from […] to 1 nM of compounds of Formula (I) were added with or without 50 ng/mL Wnt3α (Time Biosciences) and allowed to incubate with the reporter cells for 18 hours. Reporter cells with no treatment were used as negative control.

[3] = tested on: closed excisional wounds; test: Closed excisional wound healing study (cosmesis); format: in vivo, Yucatan Miniature Swine; conditions: of 8 wounds
Experimental: The test composition in the closed excisional wound and burn studies for compounds without GO-HA (no GO-HA added) was a mixture with an overall concentration of 0.20 to 0.25 mg/mL of the respective compound in serum formulation as follows: compound (4 mg), butylene glycol (0.80 mL), polysorbate 20 (0.40 mL), ultra pure water (18 mL), and hydroxypropyl cellulose (0.12 g).
The test composition in the closed excisional wound and burn studies for compounds with GO-HA (Compound+GO-HA) was a mixture with an overall concentration of 1.0 mg/mL of the respective compound and 0.5 mg/mL of GO-HA in serum formulation as follows: compound (18 mg), PEG 400 (0.8 mL), GO-HA (9 mg), ultra pure water (18 mL), and hydroxypropyl cellulose (0.12 g).
The frequency of wound creation was once on dosing phase day 1. The frequency of dose administration was once on dosing phase days 1, 3, 5, 7, 9, 11, 13, 15, 17, 19, and 21. Each animal had twelve 5 cm×0.5 cm full thickness fusiform(spindle shaped) wound sites, spaced at least 3 cm apart to the appropriate depth and in a staggered pattern to reduce central cross-sectional wound tension.
Once […] was obtained, each wound was sutured closed using non-absorbable suture, the simple interrupted closure technique is shown in FIG. 13. Each wound had 5 simple interrupted sutures with a 0.5 to 1 cm interval between sutures.
Compounds of Formula (I) and controls were applied directly to the wound site in a generous layer evenly over the sutured wound using a sterile applicator as needed. After application, each wound site was covered with suitable sterile dressing materials.
Dressings were changed every dosing phase day at day 3, 5, 7, 9, 11, 13, 15, 17, 19, and 21, and sutures were removed on dosing phase day 15. After dose administration on each dosing day, the wounds were covered with dressings as described above.
All animals were scheduled to be terminated on dosing phase day 22. At termination, the entire wound site (dose site) was collected separately for each site and included at least 0.5 cm margin skin and a depth below the wound bed. […]

[4] = tested on: new porcine skin; test: Energy peak of healed wound; format: in vivo; conditions: day 21; for Energy Peak / Energy Peak, Mean: topical
Experimental: Additional tests were performed including elasticity (Table 12); max force (Table 13); tensile strength (strain) (Table 14); energy peak (Table 15); rete-ridge formation; and collagen organization (plane polarized light) (FIG. 24) of the healed wound sites, described as follows.
A is saline (control), B is serum formulation (vehicle), C is GO-HA (vehicle), D is Compound 1; E is Compound 1+GO-HA; F is Compound 8; G is Compound 8+GO-HA; H is Compound 10; and J is Compound 10+GO-HA.
Energy Peak (N*mm) is the maximum force applied to a material over time. All compounds of Formula (I) tested with or without GO-HA ranged from 5% to 41% improvement in energy peak compared to the saline control. […] The vehicle, GO-HA, provided a 61% improvement in energy peak over the saline control.

Compound | IC50 [1] | IC50 [2] | wounds with improved cosmesis / visible appearance than the control [3] | Energy Peak ([4]; individual value 1) | Energy Peak ([4]; individual value 2) | Energy Peak ([4]; individual value 3) | Energy Peak ([4]; individual value 4) | Energy Peak, Mean [4] | improvement in energy peak compared to the saline control [4] | Energy Peak ([4]; individual value 5)
O=c1[nH]c(-c2ccc(B(O)O)cc2)nc2c1CSCC2 [Compound 1, (4-(4-oxo-3,5,7,8-tetrahydro-4H-thiopyrano[4,3-d]pyrimidin-2-yl)phenyl)boronic acid] | 2000 nM | 2000 nM | 7 of 8 | 3084.657 N*mm | 2356.435 N*mm | 1240.242 N*mm | 1885.046 N*mm | 2141.595 N*mm |  | 
O=c1[nH]c(-c2ccc(-c3ccc(Br)nc3)cc2)nc2c1CSCC2 [Compound 7, 2-(4-(6-bromopyridin-3-yl)phenyl)-3,5,7,8-tetrahydro-4H-thiopyrano [4,3-d]pyrimidin-4-one] | 17 nM | 5 to 10 nM |  |  |  |  |  |  |  | 
CC(C)(OCCO)c1ccc(-c2nc3c(c(=O)[nH]2)CSCC3)cc1 [Compound 8, 2-(4-(2-(2-hydroxyethoxy)propan-2-yl)phenyl)-3,5,7,8-tetrahydro-4H-thiopyrano[4,3-d]pyrimidin-4-one] | 4.4 nM | 5 to 10 nM | 2 of 8 | 2946.121 N*mm | 5124.987 N*mm | 2632.780 N*mm | 2286.458 N*mm | 2856.897 N*mm | 29% | 1294.14 N*mm
O=c1[nH]c(-c2ccc(-c3ccc(B(O)O)cc3)cc2)nc2c1CSCC2 [Compound 10, (4′-(4-oxo-3,5,7,8-tetrahydro-4H-thiopyrano[4,3-d]pyrimidin-2-yl)-[1,1′-biphenyl]-4-yl)boronic acid] | 5 nM |  | 3 of 8 | 3149.241 N*mm | 3038.880 N*mm | 2645.076 N*mm | 2623.098 N*mm | 2864.074 N*mm | 41% | 
COC(=O)NCCOC(C)(C)c1ccc(-c2nc3c(c(=O)[nH]2)CSCC3)cc1 [Compound 18, methyl (2-((2-(4-(4-oxo-3,5,7,8-tetrahydro-4H-thiopyrano[4,3-d]pyrimidin-2-yl)phenyl)propan-2-yl)oxy)ethyl)carbamate] | 6 nM |  |  |  |  |  |  |  |  | 

Reference: US20260356860A1, “2-SUBSTITUTED 3,4A,5,7,8,8A-HEXAHYDRO-4H-THIOPYRANO[4,3-DJPYRIMIDIN-4-ONES FOR WOUND TREATMENT” (priority 2022, published 2026)
